Data published in US20090170899A1, “Stimulators of 5-HT4 receptors and uses thereof” (priority 2004, published 2009).

Key:
[1] = system: BrdU-positive cells in the sub-granular zone (SGZ) of the hippocampus; test: Hippocampal neurogenesis (BrdU-positive cells) after 3-day treatment; format: in vivo, rat; settings: RS 67333 1.5 mg/kg/day, 3 days
Protocol: A and B: Photomicrographs (magnification: 10× and 100× for the small rectangles) representative of the control and RS 67333 group, respectively. Clusters of positive cells were found in the presence of RS 67333 (small rectangles). RS 67333 was administered through the use of osmotic minipumps, inserted subcutaneously in the region of the back. Rats received intraperitoneal injections of BrdU at the dose of 50 mg/kg twice daily (8 h interval), starting from the day of minipump insertion until day 2 post-surgery.
Drugs and Chemicals. The following compounds were used: GR 125487 sulphamate, prucalopride monohydrochloride, citalopram hydrobromide (gifts from Glaxo, Janssen and Lundbeck laboratories, respectively), RS 67333 hydrochloride (Tocris Cookson Inc., Ellisville, Mo., USA), WAY 100635 hydrochloride (Research Biochemicals, Natick, Mass., USA), pCPA methyl ester hydrochloride, BrdU (Sigma-Aldrich Canada, Oakville, Ontario, Canada). All compounds were diluted in distilled water. All drug dosages refer to the free base. For chronic treatments, prucalopride (2.5 mg/kg/day), RS 67333 (1.5 mg/kg/day) or the vehicle were delivered through osmotic minipumps (Alza, Palo Alto, Calif., USA), inserted subcutaneously in the region of the back under short-duration (≦5 min) halothane anesthesia. […]

DRN 5-HT neurons = test: Reversal by acute prucalopride of the inhibition of DRN 5-HT neuron firing rate induced by i.v. SSRIs; format: in vivo, rat
Excerpt: FIGS. 6A and 6B illustrate the effect of prucalopride on the inhibition of 5-HT neuronal firing rate induced by SSRIs fluxoamine and citalopram.
In FIGS. 6A and 6B, the firing activity of the 5-HT neuron is suppressed following the acute intravenous administration of the antidepressant SSRIs fluvoxamine and citalopram. This suppression of the firing activity is due to the activation of the 5-HT1A autoreceptors, subsequent to the increase of the concentration of endogenous 5-HT, following the blockade of the 5-HT reuptake sites.

[2] = Horizontal locomotion in activity chambers; settings: i.p. 30 min before testing; prucalopride 2.5 mg/kg, RS 67333 1.5 mg/kg
Protocol: All data are expressed as mean±S.E.M. of eight animals per group, and are from an observation of 4 min duration. Rats experienced a pre-test session (15 min) 24 h before the test session. The 5-HT4 agonists were administered 30 min before the test session. […] Data are expressed as mean±S.E.M. of eight animals per group, and are from an observation of 10 min duration. The 5-HT4 agonists were administered 30 min before testing. *p<0.05, **p<0.01 vs the vehicle, Dunnett's test;
Thirty min after drug administration, rats were placed in activity cages in whom photoelectric cells were inserted allowing recordings of locomotor activity, i.e. quantification of the total number of activity counts (photocell beam breaks) during 10 min. session.

Row | Compound | size of clusters of BrdU-positive cells [1] | density of BrdU-positive cells in the SGZ ([1]; control 44.9±17.2) | share of 5-HT neurons in which the suppression is reversed (DRN 5-HT neurons; acute prucalopride) | effect of prucalopride on SSRI-induced suppression of 5-HT neuron firing (DRN 5-HT neurons; acute prucalopride after fluvoxamine or citalopram i.v.) | effect on rat locomotion (activity counts, 10 min) [2]
1 | CCCCN1CCC(CCC(=O)c2cc(Cl)c(N)cc2OC)CC1 [RS 67333, 1-(4-amino-5-chloro-2-methoxyphenyl)-3-(1-n-burtl-4-piperidinyl)-1-propanone] | 6 to 10 clones | 200.2±44.9 per mm^2 |  |  | 
2 | COCCCN1CCC(NC(=O)c2cc(Cl)c(N)c3c2OCC3)CC1 [prucalopride] |  |  | about one-half | partially reverse | 78%
